Assay results: patent publication US20240109843A1, “BENZALDEHYDE COMPOUNDS WITH DIRECT POLYMER DESTABILIZING EFFECTS TO TREAT SICKLE CELL DISEASE” (VIRGINIA COMMONWEALTH UNIVERSITY, priority 2018, published 2024)
Where “and” joins values, the source holds several entries; their conditions need not be identical. Identical values can stand only once.

How the values were obtained:
[1] = system: RBCs from donors with homozygous SCD; test: Oxygen-independent sickle inhibition in SS blood suspensions under anoxia (100% nitrogen); type: cell-based, human; details: anoxia
Method: To establish oxygen-independent sickle inhibition, the incubation chamber was subsequently opened and exposed to room air for 15 minutes to ensure complete re-oxygenation and reversal of the sickled cells to normal round cells. Reversal was confirmed by microscopy. The incubation chamber was then closed, and the assay was repeated with incubation in 100% nitrogen gas for 1 hour (for screening), or up to 2.5 h (for time-course studies), with collection and fixation of blood aliquots at defined intervals. Aliquot samples were again subjected to microscopic morphological analysis of bright field images to identify the proportion of sickled and non-sickled cells, and sickle inhibition calculated.

[2] = 14-day repeat-dose oral pharmacokinetics in rats; type: in vivo; details: SD, rat, whole blood, repeat oral doses 100 mg/kg for 14 days
Method: (§1) Repeat doses of each compound were administered once daily as oral suspensions by gavage in 0.5% carboxy methylcellulose for 14 days at 100 mg/kg. Whole blood was collected at 7 time-points for up to 24 hours during the final dosing interval on Day 14. Clinical observations, body weights, and food consumption were recorded throughout the 14 day study. Clinical chemistry and hematologic parameters were assessed, and histopathology was performed on organs after 14 days of exposure to study drug.
(§2) Repeat oral doses of each compound were administered by oral gavage for 14 days to male and female SD rats (n=3). […] Steady state exposures for the final dosing interval on Day 14 were similar to total compound exposure from single-dose PK.

[3] = patients with SCD, most patients; cited from earlier work
Hb [4] = target: T1, Hb (Homo sapiens, UniProt P69905); test: Drug partitioning studies, fixed and unfixed Hb adducts in non-sickling AA blood; type: cell-based; design: Hemoglobin modification, studies using non-sickling AA blood; from tissue; host or cells: non-sickling (AA) human blood, red blood cells; details: 2 mM; for Fixed Adducts (%) / Unfixed Adduct (%): 6 biological replicates; for Partitioning Ratio (%): fixed relative to unfixed adducts
Method: RBC partitioning studies were conducted both for SS RBCs following sickling studies above, or as separate independent studies with non-sickle blood. Briefly, aliquots of blood samples, which had been incubated with test molecules, were lysed either in deionized water (un-fixed), or in water containing 50 mM sodium borohydride (fixed). Samples were subjected to cation exchange HPLC analyses, as described above. Modified […] (Hb adducts) was determined as a proportion of total Hb in each sample, and partitioning ratio was determined as the relative fraction of Hb modification of fixed samples compared to corresponding non-fixed samples. The partitioning ratio is the relative fraction of Hb that was modified intracellularly by molecules that permeated the RBC membrane, as compared to unfixed adducts which reflect Hb binding without RBC membrane permeation.
Target sequence in this assay (P69905 2-142 limits assumed): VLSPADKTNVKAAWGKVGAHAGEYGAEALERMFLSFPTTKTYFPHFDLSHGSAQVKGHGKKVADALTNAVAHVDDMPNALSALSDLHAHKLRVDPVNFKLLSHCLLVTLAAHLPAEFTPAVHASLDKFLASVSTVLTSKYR
Target sequence in this assay (P68871 2-147 partner limits assumed): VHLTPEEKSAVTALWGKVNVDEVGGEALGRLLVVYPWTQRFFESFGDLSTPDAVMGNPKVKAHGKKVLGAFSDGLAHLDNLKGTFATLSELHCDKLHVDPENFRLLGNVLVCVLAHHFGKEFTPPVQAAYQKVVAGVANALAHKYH

Hb [5] = target: T1, Hb; test: Hb modification (drug-adduct formation) in SS blood suspensions by cation-exchange HPLC; type: binding; design: Blood suspensions from subjects with homozygous SCD; from tissue; host or cells: blood suspensions (20% hematocrit) from donors with homozygous SCD; lysates of the treated red cells; details: 2 mM, 4 biological replicates
Method: All compounds (Comp 1-13) and comparator molecules (VZHE-039, PP-14, INN-310, and Voxelotor) were evaluated following established procedures. Blood samples from individual donors with homozygous SCD (obtained with informed consent) were diluted using Hemox buffer solution with the addition of glucose (10 mM) and BSA (0.2%) to adjust hematocrit of the blood suspensions to 20%, which standardizes the procedure to normalize the ratio of RBCs to drug, for assay consistency and reproducibility. Briefly, blood suspensions were incubated under room air in the presence of various concentrations of test compounds (0-2 mM) at 37° C. for 1 hour in 96-well round bottom plates. Subsequently, the suspensions were incubated with a hypoxic gas mixture (2.5% Oxygen gas/balance Nitrogen gas) at 37° C. for up to 2 hours prior to fixation with 2% glutaraldehyde solution without exposure to air. The fixated blood aliquots were evaluated by microscopic morphological analysis (image analysis on Image J software) to identify the proportion of sickled and non-sickled RBCs, and sickle inhibition calculated based on the % change from negative control (DMSO).
The residual samples were then washed in phosphate-buffered saline, and hemolyzed in hypotonic lysis buffer, with or without sodium borohydride (50 mM). Aliquots obtained from the lysates with or without sodium borohydride (to reduce Schiff base adducts) were also assessed for level of Hb modification (drug-adduct formation) by cation-exchange HPLC (Hitachi D-7000 Series, Hitachi Instruments, Inc., San Jose, CA) with a weak cation-exchange column (Poly CAT A: 50 mm×4.6 mm, Poly LC, Inc., Columbia, MD). Hemoglobin isotype peaks are eluted with a linear gradient of phase B from 0% to 80% at A410 nm (Mobile Phase A: 40 mM Bis-Tris, 2 mM KCN, pH 6.9; Phase B: 40 mM Bis-Tris, 2 mM KCN, 0.2 M sodium chloride, pH 6.55). Clarified lysate from normal human adult […] (Hb A), as well as commercial standards containing approximately equal amounts of Hb F, A, S and C (Helena Laboratories, Beaumont, TX), were utilized as reference isotypes. Reduced samples were used to assess “fixed adduct” formation (dependent on RBC membrane permeability), whereas non-reduced samples assessed drug-adduct formation independent of drug permeability.
Target sequence in this assay (P69905 2-142): as the sequence (P69905 2-142 limits assumed) above
Target sequence in this assay (P68871 with tags, fused parts or gaps E7V partner): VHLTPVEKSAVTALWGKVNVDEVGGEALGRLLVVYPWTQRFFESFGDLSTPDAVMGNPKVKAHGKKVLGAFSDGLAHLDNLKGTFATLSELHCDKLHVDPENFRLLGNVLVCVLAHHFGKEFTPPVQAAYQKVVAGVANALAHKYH

[6] = Single-dose oral pharmacokinetics in rats; type: in vivo, Sprague Dawley rats; details: Sprague Dawley, rat; single oral dose 100 mg/kg, male rats, whole blood
Method: Single doses of each compound were administered as oral suspensions by gavage in 0.5% carboxy methylcellulose at 100 mg/kg. Whole blood levels were collected for at least 72 hours after dose administration. Bioanalyses were performed with liquid chromatography-tandem mass spectrometry […].
Single-dose pharmacokinetics (PK) in male Sprague Dawley (SD) rats (n=4) were assessed for each compound, and the maximum or peak whole blood concentration and area under the curve are shown in Table 5.

[7] = 14-day repeat-dose safety (clinical observations, histopathology) in rats; type: in vivo, SD rats; details: for safety in non-clinical toxicology: above anticipated therapeutic drug levels; for clinical or histopathologic changes after 14 days of exposure: oral 100 mg/kg once daily for 14 days, rats
Method: as §1, §2

Hb [8] = target: T1, Hb; test: Dose-dependent P50 shift in non-sickling human blood; type: cell-based; design: Hemoglobin modification, studies using non-sickling AA blood; from tissue; host or cells: non-sickling (AA) human blood, red blood cells; details: compared to Voxelotor at equivalent drug-Hb occupancy levels
Method: Non-sickling human blood was incubated with test compounds at 0.25-2 mM concentrations at 37° C. for 1 hour in 96-well round bottom plates. At conclusion, RBCs were washed once with PBS, followed by lysis with deionized water. Approximately 100 μl aliquots of individual lysates were added to 3 mL of 0.1M potassium phosphate buffer, pH 7.0 in a cuvette and subjected to hemoximetry analysis using a Hemox™ Analyzer (TCS Scientific Corp.) as previously described. Change in p50 values (Δp50) was calculated by subtracting the p50 values of treated samples from the value of the control sample and expressing the difference as a percentage of control p50 values.
Target sequence in this assay (P69905 2-142 limits assumed): as the sequence (P69905 2-142 limits assumed) above
Target sequence in this assay (P68871 2-147 partner limits assumed): as the sequence (P68871 2-147 partner limits assumed) above

Hb [9] = target: T1, Hb; test: Affinity (KD) for Hb; type: binding
Target sequence in this assay (P69905 2-142 limits assumed): as the sequence (P69905 2-142 limits assumed) above
Target sequence in this assay (P68871 2-147 partner limits assumed): as the sequence (P68871 2-147 partner limits assumed) above

[10] = female rats, read-out: AUC0-∞ (female)
[11] = female rats, read-out: Cmax (female)
[12] = male rats, read-out: AUC0-∞ (male)
[13] = male rats, read-out: Cmax (male)

Compound	polymer destabilizing effect / sickle inhibition in anoxia (in words) [1]	AUC(0-inf) [2, 10]	Cmax [2, 11]	AUC(0-inf) [2, 12]	Cmax [2, 13]	increase in Hb concentrations [3]	Fixed Adducts (%) (Hb [4])	Unfixed Adduct (%) (Hb [4])	Partitioning Ratio (%) (Hb [4])	Hb Modification (%) (Hb [5])	AUC(0-inf) [6]	Cmax [6]	half-life [6] [h]	safety in non-clinical toxicology [7]	clinical or histopathologic changes after 14 days of exposure [7]	change in p50 of Hb in human blood (in words) (Hb [8])	Kd (Hb [9]) [µM]
CC(C)n1nccc1-c1ncccc1COc1cccc(O)c1C=O [Voxelotor, reference compound]	did not demonstrate any sickle inhibition in anoxic conditions	2.6e+06 ng·h/mL and 7620 µM·h	185000 ng/mL and 548 µM	2.3e+06 ng·h/mL and 6760 µM·h	142000 ng/mL and 422 µM	at least 1 g/dl	77.0 ± 3.8	80.3 ± 6.3	96.1 ± 3.7	92.3 ± 6.8							
O=Cc1c(O)cccc1OCc1ncccc1F [Comp 5, 2-((3-fluoropyridin-2-yl)methoxy)-6-hydroxybenzaldehyde]		5.1e+06 ng·h/mL and 20600 µM·h	246000 ng/mL and 993 µM	4.2e+06 ng·h/mL and 17100 µM·h	211000 ng/mL and 854 µM		93.1 ± 3.3	95.8 ± 3.3	97.2 ± 3.2	98.2 ± 2.5	3e+06 ng·h/mL and 12000 µM·h	86000 ng/mL and 348 µM	8.8	without hepatotoxicity	No clinical or histopathologic changes	relatively weak changes in p50	
O=Cc1c(O)cccc1OCc1cccnc1 [Comp 1, 2-hydroxy-6-(pyridin-3-ylmethoxy)benzaldehyde]	most potent and sustained polymer destabilizing effects observed to date	1.9e+06 ng·h/mL and 8080 µM·h	122000 ng/mL and 534 µM	2.4e+06 ng·h/mL and 10500 µM·h	161000 ng/mL and 703 µM		96.0 ± 1.9	97.4 ± 2.8	98.6 ± 2.8	95.8 ± 6.2	4e+06 ng·h/mL and 17400 µM·h	211000 ng/mL and 919 µM	5	without hepatotoxicity	No clinical or histopathologic changes	relatively weak changes in p50	60
O=Cc1c(O)cccc1OCc1ccccn1 [Comp 2, 2-hydroxy-6-(pyridin-2-ylmethoxy)benzaldehyde]	most potent and sustained polymer destabilizing effects observed to date	4.9e+06 ng·h/mL and 21500 µM·h	254000 ng/mL and 1.11 mM	4.7e+06 ng·h/mL and 20400 µM·h	254000 ng/mL and 1.11 mM		95.2 ± 2.3	96.3 ± 2.6	98.9 ± 2.9	95.5 ± 5.7	4.5e+06 ng·h/mL and 19800 µM·h	220000 ng/mL and 958 µM	9.7	without hepatotoxicity	No clinical or histopathologic changes	relatively weak changes in p50	
O=Cc1c(O)cccc1OCc1cccc(CO)n1 [VZHE-039, reference compound]		3.2e+06 ng·h/mL and 12200 µM·h	232000 ng/mL and 894 µM	3e+06 ng·h/mL and 11600 µM·h	195000 ng/mL and 753 µM		90.9 ± 3.4	92.4 ± 5.6	98.5 ± 4.3	90.7 ± 9.9	2.3e+06 ng·h/mL and 8780 µM·h	102000 ng/mL and 394 µM	8.4		clinical and histopathologic changes in the liver, including hepatocyte necrosis		100
